Results taken from patent publication US20040138315A1 (priority 2000, published 2004).
Where two headings read alike, the source gives them in different places.

How the values were obtained:
cyclooxygenase COX-1 = target: T1, cyclooxygenase COX-1 (Homo sapiens, UniProt P23219); test: Cyclooxygenase COX-1 inhibition in human platelets, PGE2 EIA (116010); assay type: cell-based; conditions: screened at 10 μM
T1 construct: host or cells: human platelets
Experimental: (§1) In these assays, in addition to the designations set forth above, IG-05 refers to resorcinol and IG-06 refers to orcinol.
To assess COX-1 inhibition, test compound and/or vehicle was incubated with human platelets (5×10^7/well) for 15 minutes at5 37° C. Calcium ionophore A23187 (10 μM) was added to induce the arachidonic acid cascade. After another 15 minutes incubation at 37° C., PGE2 levels in the supernatant were quantiated using the Amersham EIA kit. Compounds were screened at 10 μM.

[1] = target: T2, cyclooxygenase-2 (human recombinant) (Homo sapiens, UniProt P35354); test: Cyclooxygenase COX-2 inhibition, recombinant enzyme, PGE2 EIA (118010); assay type: biochemical; conditions: screened at 10 μM
T2 construct: 118010; host or cells: Spodoptera frugiperda (insect cells)
T2 sequence (P35354 18-604): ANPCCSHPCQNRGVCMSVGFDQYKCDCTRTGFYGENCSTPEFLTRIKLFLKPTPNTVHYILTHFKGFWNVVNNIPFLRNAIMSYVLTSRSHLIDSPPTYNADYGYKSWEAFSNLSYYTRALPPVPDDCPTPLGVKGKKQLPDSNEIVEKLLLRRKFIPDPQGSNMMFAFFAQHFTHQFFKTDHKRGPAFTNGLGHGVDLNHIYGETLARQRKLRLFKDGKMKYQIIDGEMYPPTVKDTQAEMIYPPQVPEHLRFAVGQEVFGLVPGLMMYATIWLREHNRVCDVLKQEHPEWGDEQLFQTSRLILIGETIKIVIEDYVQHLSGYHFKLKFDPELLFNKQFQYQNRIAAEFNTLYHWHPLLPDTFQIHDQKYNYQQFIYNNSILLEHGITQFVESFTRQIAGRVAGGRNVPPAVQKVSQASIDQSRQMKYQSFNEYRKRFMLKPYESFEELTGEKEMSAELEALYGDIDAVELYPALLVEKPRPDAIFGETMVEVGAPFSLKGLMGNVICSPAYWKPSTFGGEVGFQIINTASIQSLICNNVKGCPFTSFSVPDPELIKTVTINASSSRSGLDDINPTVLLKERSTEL
Experimental: as §1
Following centrifugation, substrate conversion to PGE2 was measured by an Amersham EIA kit. Compounds are screened at 10 μM.

thromboxane A2 synthase [2] = target: T3, thromboxane A2 synthase (Oryctolagus cuniculus, UniProt G1TAZ9); test: Thromboxane A2 synthase inhibition, TXB2 radioimmunoassay (194000); assay type: biochemical, rabbit
T3 sequence (G1TAZ9 1-530): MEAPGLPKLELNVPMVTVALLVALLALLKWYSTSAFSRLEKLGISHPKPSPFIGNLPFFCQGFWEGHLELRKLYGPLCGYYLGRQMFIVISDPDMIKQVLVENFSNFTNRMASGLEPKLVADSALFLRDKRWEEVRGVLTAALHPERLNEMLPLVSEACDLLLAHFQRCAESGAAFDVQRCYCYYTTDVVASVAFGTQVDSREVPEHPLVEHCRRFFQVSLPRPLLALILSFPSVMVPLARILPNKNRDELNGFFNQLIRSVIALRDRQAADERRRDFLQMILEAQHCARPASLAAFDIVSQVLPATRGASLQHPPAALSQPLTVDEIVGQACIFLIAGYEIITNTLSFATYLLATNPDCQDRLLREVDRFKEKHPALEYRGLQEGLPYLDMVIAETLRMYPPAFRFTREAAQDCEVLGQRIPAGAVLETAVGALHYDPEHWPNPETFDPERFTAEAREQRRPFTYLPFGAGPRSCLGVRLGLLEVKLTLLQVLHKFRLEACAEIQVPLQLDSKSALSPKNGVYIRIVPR
Experimental: Test compounds (IG-1 through IG-11) were evaluated for their ability to inhibit cyclooxygenase COX-1, cyclooxygenase COX-2, and thromboxane synthase. In these assays, in addition to the designations set forth above, IG-05 refers to resorcinol and IG-06 refers to orcinol.
To assess Thromboxane A2 synthase, thromboxane A2 synthase isolated from a microsomal fraction of rabbit platelets by conventional centrifugation was used. The test compound and/or vehicle was incubated with 1:200 dilution of thromboxane A2 synthase and 5 ng prostaglandin G2 as substrate in Tris buffer pH 7.5 for 30 minutes at 37° C. The thromboxane A2 formed is immediately converted to thromboxane B2, which was quantitated by a radioimmunoassay. Compounds are screened at 100 μM.

[3] = test system: arachidonic acid-induced aggregation of platelet rich plasma; test: Arachidonic acid, platelet aggregation (412510); assay type: cell-based, rabbit; conditions: 30 μM, platelet rich plasma, rabbit
Experimental: (§2) Test compounds referred to above were evaluated for inhibition of platelet aggregation induced by adenosine diphosphate, arachidonic acid, phorbol ester and Platelet Activating Factor (PAF) at […]. The following methods were employed in this analysis, and reference compounds for the respective assays are indicated in Appendix 1:
Venous blood obtained from male or female New Zealand derived albino rabbits weighting 2.5-3 kg was mixed with one-tenth volume of trisodeium citrate (0.13M) and centrifuged at room temperature for 10 min at 220 g. Test substance (30 μM)-induced aggregation of the supernatant platelet rich plasma by 50 percent or more (≧50%) within 5 min, relative to 100 μM arachidonic acid response at 37° C. as measured by an optical aggregometer indicates possible agonist activity.
At a test substance concentration where no significant agonist activity is seen, ability to reduce the arachidonic acid-induced maximum non-reversible aggregation response by 50 percent or more (>50%) was indicative of antagonist activity.

[4] = test system: PMA-induced aggregation of platelet rich plasma (phorbol ester receptor); test: Phorbol ester, platelet aggregation (461500); assay type: cell-based, rabbit; conditions: 30 μM, platelet rich plasma, rabbit
Experimental: as §2
(§3) Venous blood obtained from male or female New Zealand derived albino rabbits weighing 2.5-3 kg is mixed with one-tenth volume of trisodium citrate (0.13 M) and centrifuged at room temperature for 10 min at 220 g. Test substance (30 μM)-induced aggregation of the supernatant platelet rich plasma by 50 percent or more (≧50%) within 5 min, relative to control phorbol myristate acetate (PMA, 0.5 μM) response at 37° C. as measured by an optical aggregometer, indicates possible phorbol ester receptor agonist activity.
At a test substance concentration where no significant agonist activity is seen, ability to reduce the PMA (0.5 μM)-induced maximum non-reversible aggregation response by 50 percent or more (>50%) indicates phorbol ester receptor antagonist activity.

[5] = test system: PAF-acether-induced aggregation of platelet rich plasma (PAF receptor); test: PAF, platelet aggregation (463010); assay type: cell-based, rabbit; conditions: 30 μM, platelet rich plasma, rabbit
Experimental: as §2
as §3, with “temperture” for “temperature”, “Substance” for “substance”, “5 nM platelet activating factor-acether (PAF-acether)” for “phorbol myristate acetate (PMA, 0.5 μM)”, “37[…]” for “37° C.”, “PAF” for “phorbol ester”
At a test substance concentration where no significant agonist activity is seen, ability to reduce the PAF-acether-induced maximum non-reversible aggregation response by 50 percent or more (≧50%) indicates PAF receptor antagonist activity.

[6] = test system: adenosine diphosphate-induced aggregation of platelet rich plasma (ADP receptor); test: Adenosine diphosphate, platelet aggregation (404010); assay type: cell-based, rabbit; conditions: 30 μM, platelet rich plasma, rabbit
Experimental: as §2
Venous blood obtained from male or female New Zealand derived albino rabbits weighing 2.5-3 kg was mixed with one-tenth volume of trisodium citrate (0.13 M) and centrifuged at room temperature for 10 min at 220 g. Test substance (30 EM)-induced aggregation of the supernatant platelet rich plasma by 50 percent or more (>50%) more relative to 1.2 μM adenosine diphosphate control response at 37° C. as mearsured by an optical aggregometer, indicates possible ADP receptor agonist activity.
At a test substance concentration where no significant agonist activity is seen, ability to reduce the adenosine diphosphate-induced maximum non-reversible aggregation response by 50 percent or more (≧50%) was indicative of ADP receptor antagonist activity.

thromboxane A2 synthase [7] = target: T3, thromboxane A2 synthase; conditions: reference compound, historical; read-out: Historical IC50, Thromboxane Synthetase; cited from earlier work

T1 sequence (P23219 24-599): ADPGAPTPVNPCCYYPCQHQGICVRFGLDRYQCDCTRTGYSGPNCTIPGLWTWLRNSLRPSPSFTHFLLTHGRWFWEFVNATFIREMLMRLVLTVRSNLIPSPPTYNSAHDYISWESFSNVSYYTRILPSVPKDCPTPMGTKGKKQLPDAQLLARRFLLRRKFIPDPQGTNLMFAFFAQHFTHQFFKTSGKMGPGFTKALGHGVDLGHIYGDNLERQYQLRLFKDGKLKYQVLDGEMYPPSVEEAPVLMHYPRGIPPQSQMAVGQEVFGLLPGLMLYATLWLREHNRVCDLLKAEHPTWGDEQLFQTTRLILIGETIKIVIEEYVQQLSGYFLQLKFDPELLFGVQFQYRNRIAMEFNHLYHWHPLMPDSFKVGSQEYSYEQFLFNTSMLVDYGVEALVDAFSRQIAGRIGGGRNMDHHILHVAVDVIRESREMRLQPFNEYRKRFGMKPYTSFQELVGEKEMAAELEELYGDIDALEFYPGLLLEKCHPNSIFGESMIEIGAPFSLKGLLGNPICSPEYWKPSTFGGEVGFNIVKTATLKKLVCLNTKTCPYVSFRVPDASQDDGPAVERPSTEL

Cc1c(O)cc(C(C)(C)CCCC(C)C)cc1O [IG-10, 2-Methyl-5-(1,1,5-trimethylhexyl)resorcinol]
melting point: 145 to 147 °C
COX-1 inhibition (in words) (cyclooxygenase COX-1): potent inhibitors of COX-1
COX-2 inhibition (in words) [1]: not COX-2
Thromboxane synthase inhibition (in words) (thromboxane A2 synthase [2]; screened at 100 μM): significantly inhibit thromboxane synthase
ANT. (antagonist response), arachidonic acid platelet aggregation [3]: 100%
AG. (agonist response), arachidonic acid platelet aggregation ([3]; relative to 100 μM arachidonic acid): 0%
ANT. (antagonist response), phorbol ester platelet aggregation [4]: 9%
AG. (agonist response), phorbol ester platelet aggregation ([4]; relative to PMA 0.5 μM): 0%
ANT. (antagonist response), PAF platelet aggregation [5]: 6%
AG. (agonist response), PAF platelet aggregation ([5]; relative to 5 nM PAF-acether): 0%
ANT. (antagonist response), ADP platelet aggregation [6]: 17%
AG. (agonist response), ADP platelet aggregation ([6]; relative to […] ADP): 0%

O=C(O)c1ccc(OCCn2ccnc2)cc1 [Dazoxiben, reference compound]
IC50 (thromboxane A2 synthase [2]; reference compound, concurrent, read-out: Concurrent IC50, Thromboxane Synthetase): 61 nM
IC50 (thromboxane A2 synthase [7]): 22 nM
